Assay results taken from ChEMBL document CHEMBL4699557, “Structure activity relationship of novel antiviral nucleosides against Enterovirus A71” (Bioorg Med Chem Lett, 2020).

Columns and labels:
Enterovirus A71 [1] = assay: microbe, parasite or virus in culture; assay type: functional, organism-based, Tainin/4643/98, Vero 76; details: Enterovirus A, Tainin/4643/98, Vero 76, 72 h
Vero 76 [2] = assay: Cytotoxicity against monkey Vero 76 cells by microscopic analysis; assay type: cell-based; details: chlorocebus sabaeus, vero 76
Enterovirus A71 [3] = assay: microbe, parasite or virus in culture; assay type: functional, organism-based; details: Enterovirus A, Tainin/4643/98, Vero 76, 72 h
Vero 76 [4] = assay: Cytotoxicity against monkey Vero 76 cells by neutral red uptake assay; assay type: cell-based; details: chlorocebus sabaeus, vero 76

Row | Structure (SMILES) | EC50 (Enterovirus A71 [1]) [µM] | CC50 (Vero 76 [2]) [µM] | EC50 (Enterovirus A71 [3]) [µM] | CC50 (Vero 76 [4]) [µM]
1 | NCCCNC(=O)[C@@]12C[C@@H]1[C@@H](n1cnc3c(NC(C4CC4)C4CC4)nc(Cl)nc31)[C@H](O)[C@@H]2O | > 50 | > 50 | > 50 | 50
2 | CC(C)[C@H](Nc1nc(Cl)nc2c1ncn2[C@H]1[C@H](O)[C@H](O)[C@]2(CO)C[C@H]12)C1CC1 | 12 | > 50 | 2.3 | > 50
3 | Nc1nc(Cl)nc2c1ncn2[C@H]1[C@H](O)[C@H](O)[C@]2(CO)C[C@H]12 | > 50 | > 50 | > 36 | 36
4 | CC(C)(O)[C@@H](Nc1nc(Cl)nc2c1ncn2[C@H]1[C@H](O)[C@H](O)[C@]2(CO)C[C@H]12)C1CC1 | > 100 | > 100 | > 100 | > 100
5 | O[C@@H]1[C@H](O)[C@@H]2C[C@@H]2[C@H]1n1cnc2c(NC(C3CC3)C3CC3)nc(I)nc21 | > 50 | > 50 | > 50 | 50
6 | O=C(O)c1cnn(-c2nc(NC(C3CC3)C3CC3)c3ncn([C@H]4[C@H](O)[C@H](O)[C@@H]5C[C@@H]54)c3n2)c1 | > 50 | > 50 | > 50 | 50
7 | OC[C@H]1O[C@@H](n2cnc3c(NC(C4CCC4)C4CCC4)ncnc32)[C@H](O)[C@@H]1O | > 100 | > 100 | > 100 | > 100
8 | NCCNC(=O)[C@@]12C[C@@H]1[C@@H](n1cnc3c(NC(C4CC4)C4CC4)nc(Cl)nc31)[C@H](O)[C@@H]2O | > 50 | > 50 | > 50 | 50
9 | OC[C@@]12C[C@@H]1[C@@H](n1cnc3c(NCc4ccccc4)nc(Cl)nc31)[C@H](O)[C@@H]2O | > 100 | > 100 | > 100 | > 100
10 | O[C@@H]1[C@H](O)[C@@H]2C[C@@H]2[C@H]1n1cnc2c(NC(C3CCC3)C3CCC3)nc(Cl)nc21 | – | 16 | > 17 | 17
11 | CCOC(=O)[C@@]12C[C@@H]1[C@@H](n1cnc3c(NC(C4CC4)C4CC4)nc(Cl)nc31)[C@H](O)[C@@H]2O | > 50 | > 50 | > 1.5 | 1.5
12 | CC(C)(O)[C@@H](Nc1nc(Cl)nc2c1ccn2[C@H]1[C@H](O)[C@H](O)[C@]2(CO)C[C@H]12)C1CC1 | > 100 | > 100 | > 63 | 63
13 | O=C(O)[C@@]12C[C@@H]1[C@@H](n1cnc3c(NC(C4CC4)C4CC4)nc(Cl)nc31)[C@H](O)[C@@H]2O | > 50 | > 50 | > 50 | 50
14 | O[C@@H]1[C@H](O)[C@@H]2C[C@@H]2[C@H]1n1cnc2c(NCc3ccccc3F)nc(Cl)nc21 | > 50 | > 50 | > 23 | 23
15 | CC(C)C(Nc1nc(Cl)nc2c1ncn2[C@H]1[C@H](O)[C@H](O)[C@]2(CO)C[C@H]12)C(C)C | 32 | > 100 | 32 | > 100
16 | O[C@@H]1[C@H](O)[C@@H]2C[C@@H]2[C@H]1n1cnc2c(NCC(C3CC3)C3CC3)nc(Cl)nc21 | > 50 | > 50 | > 10 | 10
17 | OC[C@H]1O[C@@H](n2cnc3c(NC(C4CC4)C4CC4)ncnc32)[C@H](O)[C@@H]1O | > 50 | > 50 | > 50 | > 50
18 | NC(=O)c1ncn([C@H]2[C@H](O)[C@H](O)[C@]3(CO)C[C@H]23)n1 | > 50 | > 50 | > 50 | > 50
19 | CSc1nc(N[C@@H](C2CC2)C(C)(C)O)c2ccn([C@H]3[C@H](O)[C@H](O)[C@]4(CO)C[C@H]34)c2n1 | > 100 | > 100 | > 100 | > 100
